Laboratory results from patent publication US7109193B2, “Tricyclic diazepines tocolytic oxytocin receptor antagonists” (Wyeth, priority 2001, dated 2006).

What follows are compounds tested against T1, human vasopressin V2 receptor subtype (Homo sapiens, UniProt P30518) (assay: Vasopressin binding in Chinese Hamster Ovary cell membranes expressing human vasopressin V2 subtype receptors). Settings: 100 nM, CHO cell membranes, [3H]arginine vasopressin, values without parentheses.
T1 construct: host or cells: CHO cells (pZeoSV vector)
Outline: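 Radioligand displacement on membranes from CHO cells stably expressing human V2 receptor, 25 to 50 μg protein/well, in 50 mM Tris-HCl pH 7.4 with MgCl2, BSA and protease inhibitors. [^3H]arginine vasopressin (8 nM working solution) incubated 60 min at room temperature; bound label measured by filtration and scintillation counting.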

T1 sequence (P30518 whole entry): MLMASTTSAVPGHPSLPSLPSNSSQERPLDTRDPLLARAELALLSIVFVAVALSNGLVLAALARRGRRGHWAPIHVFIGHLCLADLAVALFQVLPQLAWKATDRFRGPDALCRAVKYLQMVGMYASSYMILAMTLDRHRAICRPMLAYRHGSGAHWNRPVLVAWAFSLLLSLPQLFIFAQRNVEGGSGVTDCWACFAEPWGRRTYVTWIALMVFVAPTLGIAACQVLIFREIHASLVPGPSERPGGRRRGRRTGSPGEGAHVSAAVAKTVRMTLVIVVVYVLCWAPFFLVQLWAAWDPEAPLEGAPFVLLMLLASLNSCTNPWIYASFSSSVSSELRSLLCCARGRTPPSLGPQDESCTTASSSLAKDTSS

In order of falling inhibition at 0.1 µM:
1. COc1cc(C(=O)N2Cc3cccn3Cc3ccccc32)ccc1-c1ccccc1C(F)(F)F [Example 19D, (10,11-Dihydro-5H-pyrrolo[2,1-c][1,4]benzodiazepin-10-yl)-(2-methoxy-2′-trifluoromethyl-[1,1′-biphenyl]-4-yl)-methanone]  84%
2. COc1ccccc1-c1ccc(C(=O)N2Cc3ccc(C(=O)N[C@@H](Cc4c[nH]cn4)C(N)=O)n3Cc3ccccc32)cc1 [Example 285, N-[(1S)-2-Amino-1-(1H-imidazol-4-ylmethyl)-2-oxoethyl]-10-[(2′-methoxy[1,1′-biphenyl]-4-yl)carbonyl]-10,11-dihydro-5H-pyrrolo[2,1-c][1,4]benzodiazepine-3-carboxamide]  32%
3. COc1cccc(-c2ccc(C(=O)N3Cc4ccc(C(=O)N5CCN(CCCN(C)C)CC5)n4Cc4ccccc43)cc2OC)c1 [Example 255, {10-[(2,3′-Dimethoxy[1,1′-biphenyl]-4-yl)carbonyl]-10,11-dihydro-5H-pyrrolo[2,1-c][1,4]benzodiazepin-3-yl}{4-[3-(dimethylamino)propyl]-1-piperazinyl}methanone]  27%
4. COc1cccc(-c2cc(OC)c(C(=O)N3Cc4ccc(C(=O)N[C@@H](Cc5c[nH]cn5)C(N)=O)n4Cc4ccccc43)cc2Cl)c1 [Example 287, N-[(1S)-2-Amino-1-(1H-imidazol-4-ylmethyl)-2-oxoethyl]-10-[(6-chloro-3,3′-dimethoxy[1,1′-biphenyl]-4-yl)carbonyl]-10,11-dihydro-5H-pyrrolo[2,1-c][1,4]benzodiazepine-3-carboxamide]  26%
5. COc1ccccc1-c1ccc(C(=O)N2Cc3ccc(C(=O)N[C@@H]4CN5CCC4CC5)n3Cc3ccccc32)cc1C [Example 295, N-[(3S)-1-Azabicyclo[2.2.2]oct-3-yl]-10-[(2′-methoxy-2-methyl[1,1′-biphenyl]-4-yl)carbonyl]-10,11-dihydro-5H-pyrrolo[2,1-c][1,4]benzodiazepine-3-carboxamide]  22%
6. COc1ccccc1-c1ccc(C(=O)N2Cc3ccc(C(=O)N[C@H]4CN5CCC4CC5)n3Cc3ccccc32)cc1OC [Example 299, N-[(3R)-1-Azabicyclo[2.2.2]oct-3-yl]-10-[(2,2′-dimethoxy[1,1′-biphenyl]-4-yl)carbonyl]-10,11-dihydro-5H-pyrrolo[2,1-c][1,4]benzodiazepine-3-carboxamide]  22%
7. COc1ccccc1-c1ccc(C(=O)N2Cc3ccc(C(=O)N4CCCN(C)CC4)n3Cc3ccccc32)cc1OC [Example 69, {10-[(2,2′-Dimethoxy[1,1′-biphenyl]-4-yl)carbonyl]-10,11-dihydro-5H-pyrrolo[2,1-c][1,4]benzodiazepin-3-yl}(4-methyl-1,4-diazepan-1-yl)methanone]  22%
8. Cc1ccccc1-c1ccc(C(=O)N2Cc3ccc(C(=O)NCCCN(C)C)n3Cc3ccccc32)cc1C [Example 73, N-[3-(Dimethylamino)propyl]-10-[(2,2′-dimethyl[1,1′-biphenyl]-4-yl)carbonyl]-10,11-dihydro-5H-pyrrolo[2,1-c][1,4]benzodiazepine-3-carboxamide]  21%
9. C=CCN1CCN(C(=O)c2ccc3n2Cc2ccccc2N(C(=O)c2ccc(-n4c(C)ccc4C)c(OC)c2)C3)CC1 [Example 318, (4-Allyl-1-piperazinyl){10-[4-(2,5-dimethyl-1H-pyrrol-1-yl)-3-methoxybenzoyl]-10,11-dihydro-5H-pyrrolo[2,1-c][1,4]benzodiazepin-3-yl}methanone]  17%
10. COc1cc(C(=O)N2Cc3ccc(C(=O)N4CCN(CCN5CCOCC5)CC4)n3Cc3ccccc32)ccc1-n1c(C)ccc1C [Example 317, {10-[4-(2,5-Dimethyl-1H-pyrrol-1-yl)-3-methoxybenzoyl]-10,11-dihydro-5H-pyrrolo[2,1-c][1,4]benzodiazepin-3-yl}{4-[2-(4-morpholinyl)ethyl]-1-piperazinyl}methanone]  15%
11. COc1ccccc1-c1ccc(C(=O)N2Cc3ccc(C(=O)N[C@@H](CCCCNC(=O)OC(C)(C)C)C(N)=O)n3Cc3ccccc32)cc1OC [Example 303, tert-Butyl (5S)-6-amino-5-[({10-[(2,2′-dimethoxy[1,1′-biphenyl]-4-yl)carbonyl]-10,11-dihydro-5H-pyrrolo[2,1-c][1,4]benzodiazepin-3-yl}carbonyl)amino]-6-oxohexylcarbamate]  14%
12. COc1cccc(-c2ccc(C(=O)N3Cc4ccc(C(=O)NCCCN(C)C)n4Cc4ccccc43)cc2C)c1 [Example 74, N-[3-(Dimethylamino)propyl]-10-[(3′-methoxy-2-methyl[1,1′-biphenyl]-4-yl)carbonyl]-10,11-dihydro-5H-pyrrolo[2,1-c][1,4]benzodiazepine-3-carboxamide]  14%
13. Cc1cc(C(=O)N2Cc3ccc(C(=O)N[C@@H](Cc4c[nH]cn4)C(N)=O)n3Cc3ccccc32)ccc1-c1ccccc1C(F)(F)F [Example 284, N-[(1S)-2-Amino-1-(1H-imidazol-4-ylmethyl)-2-oxoethyl]-10-{[2-methyl-2′-(trifluoromethyl)[1,1′-biphenyl]-4-yl]carbonyl}-10,11-dihydro-5H-pyrrolo[2,1-c][1,4]benzodiazepine-3-carboxamide]  12%
14. COc1cccc(-c2ccc(C(=O)N3Cc4ccc(C(=O)N5CCCN(C)CC5)n4Cc4ccccc43)cc2OC)c1 [Example 70, {10-[(2,3′-Dimethoxy[1,1′-biphenyl]-4-yl)carbonyl]-10,11-dihydro-5H-pyrrolo[2,1-c][1,4]benzodiazepin-3-yl}(4-methyl-1,4-diazepan-1-yl)methanone]  11%
15. Cc1ccccc1-c1ccc(C(=O)N2Cc3ccc(C(=O)N4CCCN(C)CC4)n3Cc3ccccc32)cc1C [Example 63, {10-[(2,2′-Dimethyl[1,1′-biphenyl]-4-yl)carbonyl]-10,11-dihydro-5H-pyrrolo[2,1-c][1,4]benzodiazepin-3-yl}(4-methyl-1,4-diazepan-1-yl)methanone]  9%
16. Cc1cc(C(=O)N2Cc3ccc(C(=O)N[C@H]4CN5CCC4CC5)n3Cc3ccccc32)ccc1-c1ccccc1C(F)(F)F [Example 301, N-[(3R)-1-Azabicyclo[2.2.2]oct-3-yl]-10-{[2-methyl-2′-(trifluoromethyl)[1,1′-biphenyl]-4-yl]carbonyl}-10,11-dihydro-5H-pyrrolo[2,1-c][1,4]benzodiazepine-3-carboxamide]  9%
17. COc1cc(C(=O)N2Cc3ccc(C(=O)N4CCCN(C)CC4)n3Cc3ccccc32)ccc1-n1c(C)ccc1C [Example 307, {10-[4-(2,5-Dimethyl-1H-pyrrol-1-yl)-3-methoxybenzoyl]-10,11-dihydro-5H-pyrrolo[2,1-c][1,4]benzodiazepin-3-yl}(4-methyl-1,4-diazepan-1-yl)methanone]  8%
18. COc1cc(C(=O)N2Cc3ccc(C(=O)N(C)CCN(C)C)n3Cc3ccccc32)ccc1-n1c(C)ccc1C [Example 309, N-[2-(Dimethylamino)ethyl]-10-[4-(2,5-dimethyl-1H-pyrrol-1-yl)-3-methoxybenzoyl]-N-methyl-10,11-dihydro-5H-pyrrolo[2,1-c][1,4]benzodiazepine-3-carboxamide]  7%
19. Cc1cc(C(=O)N2Cc3cccn3Cc3ncccc32)ccc1-c1ccccc1C(F)(F)F [Example 323F, (2-Methyl-2′-trifluoromethyl-[1,1′-biphenyl]-4-yl)-(4H,10H-3a,5,9-triaza-benzo[f]azulen-9-yl)-methanone]  5%
20. COc1cccc(-c2cc(OC)c(C(=O)N3Cc4ccc(C(=O)N5CCCN(C)CC5)n4Cc4ccccc43)cc2Cl)c1 [Example 67, {10-[(6-Chloro-3,3′-dimethoxy[1,1′-biphenyl]-4-yl)carbonyl]-10,11-dihydro-5H-pyrrolo[2,1-c][1,4]benzodiazepin-3-yl}(4-methyl-1,4-diazepan-1-yl)methanone]  4%
21. COc1cc(C(=O)N2Cc3ccc(C(=O)N4CCN(C)CC4)n3Cc3ccccc32)ccc1-n1c(C)ccc1C [Example 306, {10-[4-(2,5-Dimethyl-1H-pyrrol-1-yl)-3-methoxybenzoyl]-10,11-dihydro-5H-pyrrolo[2,1-c][1,4]benzodiazepin-3-yl}(4-methyl-1-piperazinyl)methanone]  0%
22. COc1cc(C(=O)N2Cc3ccc(C(=O)N4CCN(CCN(C)C)CC4)n3Cc3ccccc32)ccc1-n1c(C)ccc1C [Example 316, {4-[2-(Dimethylamino)ethyl]-1-piperazinyl}{10-[4-(2,5-dimethyl-1H-pyrrol-1-yl)-3-methoxybenzoyl]-10,11-dihydro-5H-pyrrolo[2,1-c][1,4]benzodiazepin-3-yl}methanone]  -2%
23. COc1cc(C(=O)N2Cc3ccc(C(=O)NCCC4CCCN4C)n3Cc3ccccc32)ccc1-n1c(C)ccc1C (stereo not shown) [Example 315, 10-[4-(2,5-Dimethyl-1H-pyrrol-1-yl)-3-methoxybenzoyl]-N-[2-(1-methyl-2-pyrrolidinyl)ethyl]-10,11-dihydro-5H-pyrrolo[2,1-c][1,4]benzodiazepine-3-carboxamide]  -4%
24. COc1ccccc1-c1ccc(C(=O)N2Cc3ccc(C(=O)N4CCN(CCCN(C)C)CC4)n3Cc3ccccc32)cc1OC [Example 254, {10-[(2,2′-Dimethoxy[1,1′-biphenyl]-4-yl)carbonyl]-10,11-dihydro-5H-pyrrolo[2,1-c][1,4]benzodiazepin-3-yl}{4-[3-(dimethylamino)propyl]-1-piperazinyl}methanone]  -4%
25. COc1ccccc1-c1ccc(C(=O)N2Cc3ccc(C(=O)n4ccnc4)n3Cc3ccccc32)cc1C [Example 292, 1H-Imidazol-1-yl-{10-[(2′-methoxy-2-methyl[1,1′-biphenyl]-4-yl)carbonyl]-10,11-dihydro-5H-pyrrolo[2,1-c][1,4]benzodiazepin-3-yl}methanone]  -7%
